Data: publication PMC4624469 (Synapse (New York, N.Y.), 2015)
Where “and” joins values, the source holds several entries; their conditions need not be identical. Equal values may be shown once. Entries after “also recorded” stand apart in the source; their conditions may differ. Read-outs that look alike come from different tables or passages of the source.

Key:
D3 Receptor [1] = assay: Binding affinity of drugs at D3 receptor; details: for In Vitro D3 Selectivity: D2/D3 affinity ratio of the cited Table 1 values
D2 Receptor = details: read-out: Binding Affinity D2 Receptor, cited from earlier work
D3 Receptor [2] = details: read-out: Binding Affinity D3 Receptor, cited from earlier work
[3] = reason for HPbCD vehicle; ref Xi et al., 2004; Gilbert et al. 2005; cited from earlier work
[4] = tested on: dopamine D2 receptor (D2R)/D3R; assay: In vivo rat PET: drug-induced displacement of 18F-fallypride; details: for 18F-Fallypride displacement in vivo (change), Dorsal Striatum / 18F-Fallypride displacement in vivo (change), Ventral Striatum: 90 min post 18F-fallypride
[5] = tested on: dopamine D2 receptor (D2R)/D3R
D3R [6] = details: cited from earlier work
D2R/D3R [7] = molecular target: D2R/D3R (Mus musculus, UniProt P30728); assay: PET/CT of 18F-fallypride in wild type and D2R knock-out mice; type: in vivo; details: D2R knock-out mice, PET
Chain of D2R/D3R (Mus musculus, UniProt P30728) (P30728 whole entry): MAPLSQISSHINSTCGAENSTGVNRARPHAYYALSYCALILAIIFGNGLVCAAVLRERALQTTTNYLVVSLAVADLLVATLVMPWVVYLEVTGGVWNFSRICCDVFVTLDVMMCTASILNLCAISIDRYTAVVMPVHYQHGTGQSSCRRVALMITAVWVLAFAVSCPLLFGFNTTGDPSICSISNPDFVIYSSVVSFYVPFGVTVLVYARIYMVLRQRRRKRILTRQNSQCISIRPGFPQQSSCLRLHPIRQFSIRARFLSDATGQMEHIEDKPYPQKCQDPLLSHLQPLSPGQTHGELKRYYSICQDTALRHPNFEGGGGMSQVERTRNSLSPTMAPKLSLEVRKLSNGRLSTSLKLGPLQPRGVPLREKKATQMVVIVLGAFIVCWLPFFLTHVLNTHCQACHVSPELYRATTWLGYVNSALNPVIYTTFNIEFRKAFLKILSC

D2R/D3R [8] = assay: as above; type: in vivo
[9] = tested on: dopamine D3R, D2Rhigh and D2Rlow receptors; assay: Approximate levels of 18F-fallypride bound to receptor subtypes; details: in vivo levels in striatum
D2RShort = details: read-out: D2RShort Ki; with 3H-spiperone; ref Stark et al., 2007; cited from earlier work
D2RLong = details: read-out: D2RLong Ki; with 3H-spiperone; ref Stark et al., 2007; cited from earlier work
[10] = molecular target: D2R high-affinity (D2Rhigh) sites; details: read-out: Kd for D2Rhigh, 1996, cited from earlier work
[11] = ref Mukherjee et al., 2000; cited from earlier work
[12] = tested on: dopamine D2 receptor (D2R)/D3R; type: binding, rabbit
[13] = Brain uptake / approximated brain concentration after intravenous injection; type: in vivo, rat; details: assuming uptake like 11C-5-OH-DPAT
D3R [14] = details: human brain; ref Tziortzi et al., 2011; cited from earlier work
[15] = rat sagittal slices, 10 µM drug, dorsal and ventral striata
[16] = BPND KO/BPND WT, mice, listed as 18F-fallypride
[17] = wild-type mice, PET, cerebellum reference
[18] = In Vitro and In Vivo PET, ref Mukherjee et al., 2000, Shi et al., 2004
[19] = intravenous dose of 0.015 mg/kg

SMILES: O=C(NCCCCN1CCN(c2cccc(Cl)c2Cl)CC1)c1ccc2c(c1)Cc1ccccc1-2 [NGB 2904]
- D3R selectivity (over D2R) (D3 Receptor [1]): > 50 fold
- In Vitro D3 Selectivity (D3 Receptor [1]): 56
- Ki (D2 Receptor; ref Heiderbreder et al., 2010): 112 nM
- Ki (D3 Receptor [2]; ref Heiderbreder et al., 2010): 2 nM
- Water solubility [3]: low water solubility
- Effect on 18F-fallypride binding in dorsal and ventral striatum ([4]; 4 mg/kg iv at 90 min, rat PET): no measureable reduction; also recorded: not evident
- 18F-Fallypride displacement in vivo (change), Dorsal Striatum ([4]; 4.0 mg/kg iv in HPbCD, rat PET): Not significant
- 18F-Fallypride displacement in vivo (change), Ventral Striatum ([4]; 4.0 mg/kg iv in HPbCD, rat PET): Not significant
- Nondisplaced 18F-Fallypride ([4]; 4.0 mg/kg iv, rat PET): 100%
- 18F-fallypride displaced [5, 15]: 40 to 50%

SMILES: CCCN1CCO[C@@H]2c3cc(O)ccc3CC[C@H]21 [PHNO]
- In Vitro D3 Selectivity (D3 Receptor [1]): 53
- Ki (D2 Receptor; ref Willeit et al., 2006): 8.5 nM
- Ki (D3 Receptor [2]; ref Willeit et al., 2006): 0.16 nM

SMILES: CCCN(CCC)C1CCc2ccc(O)cc2C1 (centres unmarked) [3H-7-OH-DPAT]
- Findings (receptor subtype binding) (D3R [6]; In Vitro, ref Gonzalez and Sibley, 1995): D3R binding at low concentrations and D2Rhigh at higher concentrations

SMILES: CCCN(CC=C[125I])C1CCc2ccc(O)cc2C1 (centres unmarked) [125I-7-OH-PIPAT]
- Findings (receptor subtype binding) (D3R [6]; In Vitro, ref Mugnani et al., 2013, Gurevich and Joyce, 1999): D3R binding; D2Rhigh binding not known

SMILES: C=CCN1CCC[C@H]1CNC(=O)c1cc(CCC[18F])cc(OC)c1OC [18F-Fallypride, (S)-N-[(1-allyl-2-pyrrolidinyl)methyl]-5-(3-[18F]fluoropropyl)-2,3-dimethoxybenzamide]
- BPND KO, Hypothalmus (D2R/D3R [7]): 1.36
- BPND KO, Substantia nigra/ Ventral tegmental area (D2R/D3R [7]): 0.81
- BPND KO, Ventral Striatum (D2R/D3R [7]): 0.55
- BPND KO, Dorsal Striatum (D2R/D3R [7]; small negative values listed as 0): 0
- fD3 (fraction of total binding to D3 receptors), Dorsal Striatum (D2R/D3R [8]; BPND KO/BPND WT, mice): 0%
- fD3 (fraction of total binding to D3 receptors), Hypothalmus (D2R/D3R [8]; BPND KO/BPND WT, mice): 98.5%
- fD3 (fraction of total binding to D3 receptors), Substantia nigra/ Ventral tegmental area (D2R/D3R [8]; BPND KO/BPND WT, mice): 99.2%
- fD3 (fraction of total binding to D3 receptors), Ventral Striatum (D2R/D3R [8]; BPND KO/BPND WT, mice): 15.6%
- fD3 (fraction of total binding to D3 receptors), Hypothalmus (D2R/D3R [8]; [16]): ~ 100%
- fD3 (fraction of total binding to D3 receptors), Substantia nigra/ Ventral tegmental area (D2R/D3R [8]; [16]): ~ 100%
- fD3 (fraction of total binding to D3 receptors), Ventral Striatum (D2R/D3R [8]; [16]): 15%
- BPND WT, Dorsal Striatum (D2R/D3R [8]; [17]): 5.30
- BPND WT, Hypothalmus (D2R/D3R [8]; [17]): 1.38
- BPND WT, Substantia nigra/ Ventral tegmental area (D2R/D3R [8]; [17]): 0.81
- BPND WT, Ventral Striatum (D2R/D3R [8]; [17]): 3.51
- Level of 18F-fallypride bound to D2Rhigh [9]: ~60%
- Level of 18F-fallypride bound to D2Rlow [9]: ~20%
- Level of 18F-fallypride bound to D3R [9]: ~20%
- Ki (D2RShort): 2.1 nM
- Ki (D2RLong): 2.2 nM

SMILES: CCCN(CCC)C1CCc2ccc(O)cc2C1 (centres unmarked) [7-OH-DPAT]
- Kd ([10]; ref van Vliet et al.): 56 nM and 89 nM

SMILES: COc1ccccc1N1CCN(CCCCNC(=O)c2ccc3ccccc3c2)CC1 [BP 897]
- Water solubility [3]: low water solubility
- 18F-fallypride displaced, dorsal and ventral striatum ([4]; 3 mg/kg iv at 90 min post 18F-fallypride, rat PET): 24–29%
- Effect on 18F-fallypride binding in DSTR and VSTR ([4]; 3.2 mg/kg at 90 min, rat PET): visible reduction
- 18F-Fallypride displacement in vivo (change), Dorsal Striatum ([4]; 3.2 mg/kg iv in HPbCD, rat PET): −29.3%
- 18F-Fallypride displacement in vivo (change), Ventral Striatum ([4]; 3.2 mg/kg iv in HPbCD, rat PET): −24.0%
- Nondisplaced 18F-Fallypride ([4]; 3.2 mg/kg iv, rat PET): 70 to 76%
- 18F-fallypride displaced in vivo ([4]; rat PET, striatum, dose not given at place): > 20%
- 18F-fallypride displaced [5, 15]: more than 90%

SMILES: C=CCN1CCC[C@H]1CNC(=O)c1cc(CCCF)cc(OC)c1OC [Fallypride]
- Ki (D2 Receptor; ref Stark et al., 2007): 2.1 nM

SMILES: CCCN([11CH2]CC)C1CCc2c(O)cccc2C1 (racemic) [11C-5-OH-DPAT, 11C-(R,S)-5-hydroxy-2-(di-n-propylamino)tetralin]
- Uptake in the rat brain [11]: approximately 1 % of the injected dose
- Findings (receptor subtype binding) (D3R [6]; [18]): D2Rhigh and some D3R (yet to be confirmed)

SMILES: CCCN(CCCCC[18F])C1CCc2c(O)cccc2C1 (racemic) [18F-5-OH-FPPAT, (R,S)-2-(N-propyl-N-(5-^18F-fluoropentyl)-5-hydroxyaminotetralin]
- Findings (receptor subtype binding) (D3R [6]; [18]): D2Rhigh and some D3R (yet to be confirmed)

SMILES: CCCN(CCC)[C@@H]1CCc2ccc(O)cc2C1 [(R)-7-OH-DPAT]
- 18F-fallypride binding reduced by ([12]; 10 nM drug, rabbit nucleus accumbens): 10–15%
- 18F-fallypride binding reduced by ([12]; 10 µM drug, all regions in rabbit): ≥ 85%
- 18F-fallypride displaced ([12]; rabbit sagittal slices, lower doses, olfactory tubercle and nucleus accumbens): approx. 15%
- Approximated brain concentration ([13]; dose of 1.88 mg/kg): approximately 100 nM
- Approximated brain concentration [13, 19]: 0.6 to 1 nM
- Kd ([10]; ref Gonzalez and Sibley, 1995, van Vliet et al.): 56 nM and 89 nM
- 18F-Fallypride displacement in vivo (change), Dorsal Striatum ([4]; 0.015 mg/kg iv, rat PET): −22% and −21.5%
- 18F-Fallypride displacement in vivo (change), Ventral Striatum ([4]; 0.015 mg/kg iv, rat PET): −29% and −28.7%
- Nondisplaced 18F-Fallypride ([4]; 0.015 mg/kg iv, rat PET): 71 to 78%
- displacement of 18F-fallypride in the ventral striatum ([4]; 0.015 mg/kg iv, rat PET): 29%
- dorsal striatum 18F-fallypride binding reduced by ([4]; 0.015 mg/kg iv, rat PET): 22%
- 18F-Fallypride displacement in vivo (change), Dorsal Striatum ([4]; 0.06 mg/kg iv, rat PET): −32.9%
- 18F-Fallypride displacement in vivo (change), Ventral Striatum ([4]; 0.06 mg/kg iv, rat PET): −43.4%
- Nondisplaced 18F-Fallypride ([4]; 0.06 mg/kg iv, rat PET): 57 to 67%
- 18F-Fallypride displacement in vivo (change), Dorsal Striatum ([4]; 0.38 mg/kg iv, rat PET): −67.9%
- 18F-Fallypride displacement in vivo (change), Ventral Striatum ([4]; 0.38 mg/kg iv, rat PET): −75%
- Nondisplaced 18F-Fallypride ([4]; 0.38 mg/kg iv, rat PET): 25 to 32%
- 18F-Fallypride displacement in vivo (change), Dorsal Striatum ([4]; 1.88 mg/kg iv, rat PET): −58% and −57.6%
- 18F-Fallypride displacement in vivo (change), Ventral Striatum ([4]; 1.88 mg/kg iv, rat PET): −77% and −76.7%
- Nondisplaced 18F-Fallypride ([4]; 1.88 mg/kg iv, rat PET): 23 to 42%
- displacement of 18F-fallypride in the ventral striatum ([4]; 1.88 mg/kg iv, rat PET): 77%
- dorsal striatum 18F-fallypride binding reduced by ([4]; 1.88 mg/kg iv, rat PET): 58%
- 18F-fallypride displaced in vivo ([4]; dose of 1.88 mg/kg): greater than 50%
- 18F-fallypride displaced in vivo [4, 19]: approximately 20%
- 18F-fallypride binding reduced by ([5]; 10 nM drug, rat ventral striatum (VST) and dorsal striatum (DST)): 10–15%
- 18F-fallypride binding reduced by ([5]; 10 µM drug, all regions in rat): ≥ 85%
- 18F-fallypride displaced ([5]; rat horizontal slices, 100 nM drug): approx. 30%
- 18F-fallypride displaced ([5]; rat horizontal slices, 10 µM drug): exceeded 80%
- 18F-fallypride displaced ([5]; rat horizontal slices, micromolar concentration): about 60%
- 18F-fallypride displaced ([5]; rat sagittal slices, 10 µM drug, dorsal striatum): approx. 75%

SMILES: CC[11CH2]N1CCO[C@@H]2c3cc(O)ccc3CCC21 (some centres unmarked) [11C-PHNO]
- D3R binding fraction, substantia nigra and hypothalamus (D3R [14]): 100%
- D3R binding fraction, ventral striatum (D3R [14]): 26%
